# Patent publication US20080039515A1, “Arylpyrazoles And Methods Of Using Same For Control Of Insect Pests That Bore Into Trees” (The Texas A&M University System, priority 2004, published 2008)
# Like-named read-outs stand apart in the source and are kept apart here.
# Test system: Ips engravers beetles
# Format: in vivo
# Experimental: Study Sites: Two 20-year-old, recently thinned loblolly pine plantations were selected in Texas. Trees in one plantation were injected for use in a bolt study (Trial 1). Trees in ½ acre section of the second plantation were injected as part of a single-tree protection study (Trial 2). A staging area also was set up in the second plantation where bolts from the first plantation were exposed to bark beetles and wood borers.
# Population Monitoring: A clear panel of acetate (10 cm wide by 25 cm long) was attached to the center of each bolt after deployment of bolts or 2 m high on standing trees after deployment of pheromone baits to monitor arrival of bark beetles. The top surface of each panel was coated entirely with Stikem Special® trapping compound (Michel and Pelton, Emeryville, Calif.). The traps were left in place for two weeks.
# After 1 (May 24), 3 (July 19) and 5 (September) months post-injection, 5 trees of each treatment were felled and two 1.5 m long bolts were removed from the 3 m and 8 m heights of the bole. Because southern pine beetle (SPB) populations were extremely low in east Texas during the study year, Ips engravers were used as alternative bark beetles for this study. The bolts were transported to a 20-year-old loblolly plantation that was recently thinned and contained fresh slash material. Each bolt was placed about 1 m apart on discarded, dry pine bolts to maximize surface area available for colonization as well as to discourage predation by ground and litter-inhabiting organisms. To facilitate timely bark beetle colonization, packets of bark beetle pheromones (racemic ipsdienol +lanerione combination, ipsenol or cis-verbenol; Phero Tech, Inc., Delta, BC, Canada) were attached separately to three 1 m stakes evenly spaced in the study area. Racemic ipsdienol and cis-verbenol were used with the second series of bolts deployed in July. The packets were removed after 2 weeks when signs of attacks (boring dust) were observed on most test bolts, signaling that naturally-produced pheromones were present.
# Treatment Evaluation: Trial 1. The first and second series of bolts were retrieved 2.5 and 3 weeks, respectively, after deployment, after observing many cerambycid attacks on most of the bolts. In the laboratory, two 10×50 cm strips (total=1000 cm^2) of bark were removed from each bolt. Several measurements were made relating to construction of nuptial chambers and egg galleries and development of brood: • 1. Number of unsuccessful attacks—penetration to phloem, but no egg galleries. • 2. Number of successful attacks—construction of nuptial chamber and at least one egg gallery extending from it. • 3. Number and lengths of egg galleries with brood galleries radiating from them. • 4. Number and lengths of egg galleries without brood galleries. • 5. Cerambycid activity, estimated by overlaying a 100 cm^2 grid over a portion of each bark strip and counting the number of squares overlapping area where cerambycids had fed.
# Treatment efficacy was determined by comparing Ips beetle attacks and egg gallery length and cerambycid feeding on treated and untreated bolts. The data were transformed by log10(x+1) to satisfy criteria for normality and homoscedasticity (Zar 1984) and analyzed by GLM and the Fishers Protected LSD test using the Statview statistical program.
# [1] = 1 month post-injection (May), bolt height 3 m
# [2] = 1 month post-injection (May), bolt height 8 m
# [3] = 3 months post-injection (July), bolt height 3 m
# [4] = 3 months post-injection (July), bolt height 8 m
# [5] = 3 months post-injection, bolt height 3 m
# [6] = 3 months post-injection, bolt height 8 m
# [7] = 5 months post-injection (Sept.), bolt height 3 m
# [8] = 5 months post-injection (Sept.), bolt height 8 m
compound,measurement,setting,value
O=[N+]([O-])NC1=NCCN1Cc1ccc(Cl)nc1 [Imid],Length of Egg Galleries Total,[1],442.2
same,Length of Egg Galleries With Brood,[1],283.2 cm
same,Length of Egg Galleries With Brood % of Total,[1],64.0%
same,Length of Egg Galleries Without Brood,[1],159.0 cm
same,Length of Egg Galleries Without Brood % of Total,[1],36.0%
same,Mean # of Ips caught/trap,[1],5.6
same,Number of Egg Galleries Total,[1],65.2
same,Number of Egg Galleries With Brood % of Total,[1],46.0%
same,Number of Egg Galleries With Brood No.,[1],30.0
same,Number of Egg Galleries Without Brood % of Total,[1],54.0%
same,Number of Egg Galleries Without Brood No.,[1],35.2
same,Nuptial Chambers Total,[1],18.2
same,Nuptial Chambers With Egg Galleries % of Total,[1],89.0%
same,Nuptial Chambers With Egg Galleries No.,[1],16.2
same,Nuptial Chambers Without Egg Galleries % of Total,[1],11.0%
same,Nuptial Chambers Without Egg Galleries No.,[1],2.0
same,Length of Egg Galleries Total,[2],315.8
same,Length of Egg Galleries With Brood,[2],197.0 cm
same,Length of Egg Galleries With Brood % of Total,[2],62.4%
same,Length of Egg Galleries Without Brood,[2],118.8 cm
same,Length of Egg Galleries Without Brood % of Total,[2],37.6%
same,Mean # of Ips caught/trap,[2],3.8
same,Number of Egg Galleries Total,[2],49.0
same,Number of Egg Galleries With Brood % of Total,[2],39.6%
same,Number of Egg Galleries With Brood No.,[2],19.4
same,Number of Egg Galleries Without Brood % of Total,[2],60.4%
same,Number of Egg Galleries Without Brood No.,[2],29.6
same,Nuptial Chambers Total,[2],15.8
same,Nuptial Chambers With Egg Galleries % of Total,[2],81.0%
same,Nuptial Chambers With Egg Galleries No.,[2],12.8
same,Nuptial Chambers Without Egg Galleries % of Total,[2],19.0%
same,Nuptial Chambers Without Egg Galleries No.,[2],3.0
same,Mean # of Ips caught/trap,[3],2.6
same,Nuptial Chambers Total,[3],10.8
same,Nuptial Chambers With Egg Galleries % of Total,[3],61.1%
same,Nuptial Chambers With Egg Galleries No.,[3],6.6
same,Nuptial Chambers Without Egg Galleries % of Total,[3],38.9%
same,Nuptial Chambers Without Egg Galleries No.,[3],4.2
same,Mean # of Ips caught/trap,[4],2.0
same,Nuptial Chambers Total,[4],9.4
same,Nuptial Chambers With Egg Galleries % of Total,[4],59.6%
same,Nuptial Chambers With Egg Galleries No.,[4],5.6
same,Nuptial Chambers Without Egg Galleries % of Total,[4],40.4%
same,Nuptial Chambers Without Egg Galleries No.,[4],3.8
same,Length of Egg Galleries Total,[5],187.4
same,Length of Egg Galleries With Brood,[5],151.4 cm
same,Length of Egg Galleries With Brood % of Total,[5],80.8%
same,Length of Egg Galleries Without Brood,[5],36.0 cm
same,Length of Egg Galleries Without Brood % of Total,[5],19.2%
same,Number of Egg Galleries Total,[5],20.6
same,Number of Egg Galleries With Brood % of Total,[5],68.9%
same,Number of Egg Galleries With Brood No.,[5],14.2
same,Number of Egg Galleries Without Brood % of Total,[5],31.1%
same,Number of Egg Galleries Without Brood No.,[5],6.4
same,Length of Egg Galleries Total,[6],130.0
same,Length of Egg Galleries With Brood,[6],87.4 cm
same,Length of Egg Galleries With Brood % of Total,[6],67.2%
same,Length of Egg Galleries Without Brood,[6],42.6 cm
same,Length of Egg Galleries Without Brood % of Total,[6],32.8%
same,Number of Egg Galleries Total,[6],17.4
same,Number of Egg Galleries With Brood % of Total,[6],52.9%
same,Number of Egg Galleries With Brood No.,[6],9.2
same,Number of Egg Galleries Without Brood % of Total,[6],47.1%
same,Number of Egg Galleries Without Brood No.,[6],8.2
same,Length of Egg Galleries Total,[7],163.4
same,Length of Egg Galleries With Brood,[7],154.2 cm
same,Length of Egg Galleries With Brood % of Total,[7],94.4%
same,Length of Egg Galleries Without Brood,[7],9.2 cm
same,Length of Egg Galleries Without Brood % of Total,[7],5.6%
same,Mean # of Ips caught/trap,[7],1.6
same,Number of Egg Galleries Total,[7],13.2
same,Number of Egg Galleries With Brood % of Total,[7],89.4%
same,Number of Egg Galleries With Brood No.,[7],11.8
same,Number of Egg Galleries Without Brood % of Total,[7],10.6%
same,Number of Egg Galleries Without Brood No.,[7],1.4
same,Nuptial Chambers Total,[7],4.6
same,Nuptial Chambers With Egg Galleries % of Total,[7],95.7%
same,Nuptial Chambers With Egg Galleries No.,[7],4.4
same,Nuptial Chambers Without Egg Galleries % of Total,[7],4.3%
same,Nuptial Chambers Without Egg Galleries No.,[7],0.2
same,Length of Egg Galleries Total,[8],164.4
same,Length of Egg Galleries With Brood,[8],144.8 cm
same,Length of Egg Galleries With Brood % of Total,[8],88.1%
same,Length of Egg Galleries Without Brood,[8],19.6 cm
same,Length of Egg Galleries Without Brood % of Total,[8],11.9%
same,Mean # of Ips caught/trap,[8],1.5
same,Number of Egg Galleries Total,[8],18.0
same,Number of Egg Galleries With Brood % of Total,[8],81.1%
same,Number of Egg Galleries With Brood No.,[8],14.6
same,Number of Egg Galleries Without Brood % of Total,[8],18.9%
same,Number of Egg Galleries Without Brood No.,[8],3.4
same,Nuptial Chambers Total,[8],7.2
same,Nuptial Chambers With Egg Galleries % of Total,[8],69.4%
same,Nuptial Chambers With Egg Galleries No.,[8],5.0
same,Nuptial Chambers Without Egg Galleries % of Total,[8],30.6%
same,Nuptial Chambers Without Egg Galleries No.,[8],2.2
